Laboratory results from US11213563B2, “Polypeptide and use thereof” (Genoimmune Therapeutics Co., Ltd., priority 2016, dated 2022).

What was measured:
[1] = tested on: human non-small cell lung adenocarcinoma cell line H2087-polypeptide FILDGLYSV; assay: Lentivirus-infected DCs vaccine in subcutaneous tumor-modeled NOD/SCID mice; type: in vivo; conditions: DCs infected with lentivirus expressing the polypeptide, intracutaneous, 2 injections; vs wild-type lentivirus DCs
Procedure: (§1) After isolated with Ficoll solution from 600 to 900 ml anticoagulant peripheral blood from a healthy volunteer, the collected PBMCs in a concentration of 2×10^7 cells/0.5 ml were intraperitoneally injected into each of 300 NOD SCID mice without immune leakage, so as to reconstruct a human immune system in the NOD SCID mice, with the mice after 4 weeks selected for subsequent inoculation of the human non-small cell lung adenocarcinoma cell line H2087-polypeptide […] obtained in 6.2.
The human non-small cell lung adenocarcinoma cell line H2087-polypeptide […] (SEQ ID NO:1) obtained in 6.2 was incubated in DMEM medium containing 10% fetal calf serum, 100 U/mL penicillin and 100 U/mL streptomycin in an incubator under 37° C. and 5% CO2, and then the cells were centrifuged at 3000 rpm for collection. The collected cells were washed with sterile physiological saline three times, and then diluted appropriately. To 40 μl tumor cell suspension, 10 μl 0.4% […] was added for staining, subsequently the tumor cell suspension in a concentration of 1×10^8 cells/ml was prepared after counting under microscope. 100 μl of the tumor cell suspension was inoculated into each of the NOD/SCID mice by subcutaneous injection at 4 weeks post immune reconstruction in 6.3, with daily observation of the presence/absence of infection at inoculation sites, the increase/decrease of tumor size (in the case of presence of a tumor), and measurement of the major axis (a) and the minor axis (b) of a tumor by a vernier caliper every 2 or 3 days (where the tumor size=a×b×b/2). After 7 days from inoculation, a tumor in a size of rice grain was touchable at the inoculation site. After that, the subcutaneous tumor-modeled NOD/SCID mice (modeled with H2087-polypeptide […] (SEQ ID NO:1)) were treated with a polypeptide+complete Freund's adjuvant vaccine, a polypeptide+DCs vaccine, a lentivirus-infected DCs vaccine and a DC-CTL vaccine respectively, with the tumor size and mouse survival rate observed and recorded every 2 days.
Peripheral blood mononuclear cells (PBMCs) in 100 to 150 mL anticoagulant peripheral blood obtained from a healthy volunteer were isolated with Ficoll solution. After the collected PBMCs were incubated at 37° C. for 2 hours and the non-adherent PBLs were removed, the adherent monocytes were cultured in the presence of recombinant human granulocyte macrophage colony stimulating factor (rhGM-CSF) and recombinant human interleukin-4 (rhIL-4). […] After 24 hours' incubation, the collected cells with lentivirus-containing medium removed were again incubated in a fresh medium containing 50 ng/ml rhIL-4, 100 ng/ml rh GM-CSF, 100 U/ml IFN-γ and 100 U/ml CD40L in an incubator under 37° C. and 5% CO2 for 48 to 72 hours, so as to induce mature DCs, and then the DCs infected with lentivirus were observed under the fluorescence microscope. The collected mature DCs were washed with physiological saline three times and diluted with the physiological saline to a concentration of (4.0±0.5)×10^7 cells/ml for use. The subcutaneous tumor-modeled NOD/SCID mice obtained in 6.4 of the example 6 were randomly divided into seven groups as below, with 6 mice per group.
The vital signs of the mice were observed after administration, and the major axis (a) and the minor axis (b) of a tumor were measured by a vernier caliper every 2 days for calculation of tumor size according to a formula of a×b×b/2, with the weight change and survival rate observed and recorded.

[2] = tested on: human non-small cell lung adenocarcinoma cell line H2087-polypeptide FILDGLYSV; assay: Polypeptide-specific DC-CTL vaccine in subcutaneous tumor-modeled NOD/SCID mice; type: in vivo; conditions: CTLs stimulated by DCs loaded with the polypeptide, i.v. 1×10^8 cells/mouse; vs wild-type CTL group
Procedure: as §1
The human non-small cell lung adenocarcinoma cell line H2087-polypeptide […] (SEQ ID NO:1) obtained in 6.2 was incubated in DMEM medium containing 10% fetal calf serum, 100 U/mL penicillin and 100 U/mL streptomycin in an incubator under 37° C. and 5% CO2, and then the cells were centrifuged at 3000 rpm for collection. The collected cells were washed with sterile physiological saline three times, and then diluted appropriately. To 40 μl tumor cell suspension, 10 μl 0.4% […] was added for staining, subsequently the tumor cell suspension in a concentration of 1×10^8 cells/ml was prepared after counting under microscope. 100 μl of the tumor cell suspension was inoculated into each of the NOD/SCID mice by subcutaneous injection at 4 weeks post immune reconstruction in 6.3, with daily observation of the presence/absence of infection at inoculation sites, the increase/decrease of tumor size (in the case of presence of a tumor), and measurement of the major axis (a) and the minor axis (b) of a tumor by a vernier caliper every 2 or 3 days (where the tumor size=a×b×b/2).
The number of T lymphocytes was counted at day 0, 7, 14 and 21 post incubation, for calculation of cell proliferation index (PI), where PI=cell number after proliferation/cell number seeded. The cytotoxic T lymphocytes (CTLs) were harvested at day 21 post incubation, which were suspended in 0.2 ml physiological saline, and then injected intravenously to the subcutaneous tumor-modeled NOD/SCID mice via the tail in an amount of 1×10^8 cells/mouse. The vital signs of the mice were observed after administration, and the major axis (a) and the minor axis (b) of a tumor were measured by a vernier caliper every 2 days for calculation of tumor size.

CD8^+ T cells = assay: IFN-γ ELISPOT of CD8+ T cell immune response activated by polypeptide; type: cell-based, human; conditions: for Conclusion (immunogenicity): ELISPOT spot ratio >2 criterion; for Number of spots produced by mutant polypeptide or each of its variants / Number of spots produced by wild-type polypeptide: IFN-γ ELISPOT, T cells activated by the listed polypeptide; for Number of spots produced by mutant polypeptide or each of its variants: T2 cells loaded with mutant polypeptide; for Number of spots produced by wild-type polypeptide: T2 cells loaded with wild-type polypeptide FILDGSYSV; for Ratio of mutant polypeptide to wild-type polypeptide: spot number ratio, >2 indicates immunogenicity
From the text: The mutant polypeptide with immunogenicity should meet the following requirement:
Spots number of mutant polypeptide/spots number of wild-type polypeptide>2,
After specifically recognizing the complex of HLA-A0201 and the mutant polypeptide, the polypeptide specific-CD8^+T cell is activated and secretes IFN-γ, which will be captured by the firstly antibody coated on the ELISPOT plate and further be bound by an enzyme-coupled secondly antibody, and finally developed by addition of a substrate which can be catalyzed by the enzyme, thus forming colored spots. The number of spots produced represents the number of the IFN-γ secreted by the activated CD8^+T cell.

Sequence	Mouse survival period [1]	Tumor growth [1]	Mouse survival period [2]	Tumor growth [2]	Conclusion (immunogenicity) (CD8^+ T cells)	Number of spots produced by mutant polypeptide or each of its variants (CD8^+ T cells)	Number of spots produced by wild-type polypeptide (CD8^+ T cells)	Ratio of mutant polypeptide to wild-type polypeptide (CD8^+ T cells)
FILDGLYSL [mutant polypeptide's variant, Leucine at position 9]	prolonging mouse survival period effectively	inhibiting tumor growth	prolonging mouse survival period significantly	inhibiting tumor growth	immunogenic	313	37	8.46
FILDGLYSV [mutant polypeptide from COL21A1, Serine at position 45 mutated into Leucine]	prolonging mouse survival period effectively	inhibiting tumor growth	prolonging mouse survival period significantly	inhibiting tumor growth	immunogenic	296	29	10.2
FLLDGLYSL [mutant polypeptide's variant, Leucine at positions 2 and 9]	prolonging mouse survival period effectively	inhibiting tumor growth	prolonging mouse survival period significantly	inhibiting tumor growth	immunogenic	279	24	11.62
FLLDGLYSV [mutant polypeptide's variant, Leucine at position 2]	prolonging mouse survival period effectively	inhibiting tumor growth	prolonging mouse survival period significantly	inhibiting tumor growth	immunogenic	301	42	7.17
FMLDGLYSL	prolonging mouse survival period effectively	inhibiting tumor growth	prolonging mouse survival period significantly	inhibiting tumor growth	immunogenic	319	35	9.11
FMLDGLYSV	prolonging mouse survival period effectively	inhibiting tumor growth	prolonging mouse survival period significantly	inhibiting tumor growth	immunogenic	335	50	6.7
